Test results reported in patent US8685970B2, “Quinolines and related analogs as sirtuin modulators” (GlaxoSmithKline, LLC, priority 2008, dated 2014).

Target: T1, SIRT1 (Homo sapiens, UniProt Q96EB6)
T1 sequence (Q96EB6 1-747): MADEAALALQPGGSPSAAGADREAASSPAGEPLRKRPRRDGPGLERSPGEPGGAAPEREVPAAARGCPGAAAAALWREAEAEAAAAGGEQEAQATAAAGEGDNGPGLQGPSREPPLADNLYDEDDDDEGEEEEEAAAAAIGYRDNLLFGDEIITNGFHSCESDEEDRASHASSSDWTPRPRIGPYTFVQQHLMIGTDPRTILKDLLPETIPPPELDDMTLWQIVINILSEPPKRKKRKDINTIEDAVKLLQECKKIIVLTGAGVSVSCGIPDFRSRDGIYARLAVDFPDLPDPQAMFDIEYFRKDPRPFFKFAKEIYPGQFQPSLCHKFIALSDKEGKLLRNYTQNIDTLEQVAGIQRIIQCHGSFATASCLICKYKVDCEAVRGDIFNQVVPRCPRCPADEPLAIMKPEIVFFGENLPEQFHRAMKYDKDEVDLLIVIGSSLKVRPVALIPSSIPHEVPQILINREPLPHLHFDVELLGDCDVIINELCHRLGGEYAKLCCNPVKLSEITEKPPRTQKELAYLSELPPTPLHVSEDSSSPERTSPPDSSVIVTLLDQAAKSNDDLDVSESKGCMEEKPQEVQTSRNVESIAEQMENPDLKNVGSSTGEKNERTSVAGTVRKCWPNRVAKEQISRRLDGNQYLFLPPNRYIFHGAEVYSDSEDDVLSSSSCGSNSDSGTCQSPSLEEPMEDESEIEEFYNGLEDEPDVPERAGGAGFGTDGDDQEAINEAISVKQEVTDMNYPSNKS
Assay: Mass spectrometry based SIRT1 deacetylation assay (activation)
Assay type: biochemical
Settings: 10 nM SIRT1, 0.5 μM peptide substrate, 120 μM βNAD+, 25 min at 25° C.
Excerpt: A mass spectrometry based assay was used to identify modulators of SIRT1 activity. The mass spectrometry based assay utilizes a peptide having 20 amino acid residues as follows: Ac-EE-K (biotin)-GQSTSSHSK (Ac)N1eSTEG-K(5TMR)-EE-NH2 (SEQ ID NO: 1) wherein K(Ac) is an acetylated lysine residue and Nle is a norleucine. The peptide is labeled with the fluorophore 5TMR (excitation 540 nm/emission 580 nm) at the C-terminus. The sequence of the peptide substrate is based on p53 with several modifications. In addition, the methionine residue naturally present in the sequence was replaced with the norleucine because the methionine may be susceptible to oxidation during synthesis and purification.
The mass spectrometry assay is conducted as follows: 0.5 μM peptide substrate and 120 μM βNAD^+ is incubated with 10 nM SIRT1 for 25 minutes at 25° C. in a reaction buffer (50 mM Tris-acetate pH 8, 137 mM NaCl, 2.7 mM KCl, 1 mM MgCl2, 5 mM DTT, 0.05% BSA). Test compounds may be added to the reaction as described above. The SirT1 gene is cloned into a T7-promoter containing vector and transformed into BL21(DE3). After the 25 minute incubation with SIRT1, 10 μL of 10% formic acid is added to stop the reaction. Reactions are sealed and frozen for later mass spec analysis. Determination of the mass of the substrate peptide allows for precise determination of the degree of acetylation (i.e. starting material) as compared to deacetylated peptide (product).
A control for inhibition of sirtuin activity is conducted by adding 1 μL of 500 mM nicotinamide as a negative control at the start of the reaction (e.g., permits determination of maximum sirtuin inhibition). A control for activation of sirtuin activity is conducted using 10 nM of sirtuin protein, with 1 μL of DMSO in place of compound, to determine the amount of deacetylation of the substrate at a given timepoint within the linear range of the assay. This timepoint is the same as that used for test compounds and, within the linear range, the endpoint represents a change in velocity.
For the above assay, SIRT1 protein was expressed and purified as follows. The SirT1 gene was cloned into a T7-promoter containing vector and transformed into BL21(DE3). The protein was expressed by induction with 1 mM IPTG as an N-terminal His-tag fusion protein at 18° C. overnight and harvested at 30,000×g. Cells were lysed with lysozyme in lysis buffer (50 mM Tris-HCl, 2 mM Tris[2-carboxyethyl]phosphine (TCEP), 10 μM ZnCl2, 200 mM NaCl) and further treated with sonication for 10 min for complete lysis. The protein was purified over a Ni-NTA column (Amersham) and fractions containing pure protein were pooled, concentrated and run over a sizing column (Sephadex S200 26/60 global). The peak containing soluble protein was collected and run on an Ion-exchange column (MonoQ). Gradient elution (200 mM-500 mM NaCl) yielded pure protein. This protein was concentrated and dialyzed against dialysis buffer (20 mM Tris-HCl, 2 mM TCEP) overnight. The protein was aliquoted and frozen at −80° C. until further use.
Sirtuin modulating compounds that activated SIRT1 were identified using the assay described above and are shown below in Table 1. The EC1.5 values represent the concentration of test compounds that result in 150% activation of SIRT1. The EC1.5 values for the activating compounds are represented by A (EC1.5<1.0 uM), B (EC1.5 1-25 uM), C (EC1.5>25 uM). The percent maximum fold activation is represented by A (Fold activation >200%) or B (Fold Activation <200%). “NT” indicates the compound was not tested in a particular assay.

Row | SMILES | % Fold Act. (percent maximum fold activation) | EC1.5 (concentration of test compound that results in 150% activation of SIRT1)
1 | Cc1cc(C)nc(NC(=O)c2cccc3ccc(-c4cccc(N5CCOCC5)c4)nc23)c1 [Compound 267] | A (Fold activation >200%) | A (EC1.5<1.0 uM)
2 | O=C(Nc1ccc(CN2CCOCC2)cc1)c1cccc2ccc(-c3cccc(C(F)F)c3)nc12 [Compound 303] | A (Fold activation >200%) | A (EC1.5<1.0 uM)
3 | O=C(Nc1cccc(CN2CCCC2)n1)c1cccc2ccc(-c3cccc(C(F)F)c3)nc12 [Compound 288] | A (Fold activation >200%) | A (EC1.5<1.0 uM)
4 | O=C(Nc1cccc(CN2CCOCC2)n1)c1cccc2ccc(-c3cccc(C(F)F)c3)nc12 [Compound 287] | A (Fold activation >200%) | A (EC1.5<1.0 uM)
5 | FC(F)(F)c1cccc(-c2ccc3cccc(NCc4nccs4)c3n2)c1 [Compound 137] |  | C (EC1.5>25 uM)
6 | O=C(Nc1ccncn1)c1cccc2cnc(-c3cccnc3)nc12 [Compound 296] |  | C (EC1.5>25 uM)
7 | O=C(Nc1cccc2ccc(-c3cccc(C(F)(F)F)c3)nc12)c1cccs1 [Compound 204] | B (Fold Activation <200%) | B (EC1.5 1-25 uM)
8 | Cc1cncc(-c2ccc3cccc(C(=O)Nc4cccc(CN5CCOCC5)n4)c3n2)c1 [Compound 244] | A (Fold activation >200%) | A (EC1.5<1.0 uM)
9 | Cc1cc(-c2ccc3cccc(C(=O)Nc4nccs4)c3n2)ccn1 [Compound 223] |  | C (EC1.5>25 uM)
10 | CS(=O)(=O)c1ccc(-c2ccc3cccc(NC(=O)c4cscn4)c3n2)cc1 [Compound 106] | B (Fold Activation <200%) | B (EC1.5 1-25 uM)
11 | FC(F)(F)c1cccc(-c2ccc3cccc(CNC4CCOCC4)c3n2)c1 [Compound 144] |  | C (EC1.5>25 uM)
12 | O=C(Nc1cccc2ccc(-c3cccc(OC(F)(F)F)c3)nc12)c1cccc(F)c1 [Compound 21] |  | C (EC1.5>25 uM)
13 | Cc1cc(NC(=O)c2cccc3ccc(-c4cccc(C(F)(F)F)c4)nc23)no1 [Compound 73] | B (Fold Activation <200%) | B (EC1.5 1-25 uM)
14 | O=C(Nc1cccc2ccc(-c3ccc(F)c(C(F)(F)F)c3)nc12)c1ccccc1 [Compound 170] |  | C (EC1.5>25 uM)
15 | COC(=O)c1ccc(NC(=O)c2cccc3ccc(-c4cccc(C(F)(F)F)c4)nc23)o1 [Compound 61] | A (Fold activation >200%) | A (EC1.5<1.0 uM)
16 | Cc1cc(NC(=O)c2cccc3ccc(-c4cccc(N5CCOCC5)c4)nc23)sn1 [Compound 253] | A (Fold activation >200%) | A (EC1.5<1.0 uM)
17 | Cc1csc(NC(=O)c2cccc3cnc(-c4cccnc4)nc23)n1 [Compound 295] |  | C (EC1.5>25 uM)
18 | Cc1cc(NC(=O)c2cccc3ccc(-c4cccc(C(F)(F)F)c4)nc23)sn1 [Compound 59] | A (Fold activation >200%) | A (EC1.5<1.0 uM)

Second part, the compound after the results:

Row | % Fold Act. (percent maximum fold activation) | EC1.5 (concentration of test compound that results in 150% activation of SIRT1) | SMILES
19 | A (Fold activation >200%) | B (EC1.5 1-25 uM) | O=C(NC1CCOC1=O)c1cccc2ccc(-c3cccc(C(F)(F)F)c3)nc12 (stereo not shown) [Compound 38]
20 | A (Fold activation >200%) | A (EC1.5<1.0 uM) | Cc1csc(NC(=O)c2cccc3ccc(-c4cccc(C(F)(F)F)c4)nc23)n1 [Compound 27]
21 | A (Fold activation >200%) | A (EC1.5<1.0 uM) | O=C(Nc1nccs1)c1cccc2ccc(-c3ccnc(C(F)F)c3)nc12 [Compound 304]
22 | B (Fold Activation <200%) | B (EC1.5 1-25 uM) | COc1cccc(C(=O)Nc2cccc3ccc(-c4cccc(C(F)(F)F)c4)nc23)c1 [Compound 205]
23 |  | C (EC1.5>25 uM) | O=C(Nc1cccc2ccc(-c3cccc(C(F)(F)F)c3)nc12)c1cccc(OCCN2CCOCC2)c1 [Compound 318]
24 | A (Fold activation >200%) | B (EC1.5 1-25 uM) | O=C(Nc1cccc2ccc(-c3ccccc3)nc12)c1cscn1 [Compound 2]
25 | A (Fold activation >200%) | A (EC1.5<1.0 uM) | O=C(Nc1cccc(CN2CCOCC2)n1)c1cccc2ccc(-c3cccc(C(F)(F)F)c3)nc12 [Compound 228]
26 | A (Fold activation >200%) | A (EC1.5<1.0 uM) | Cn1cnc(C(=O)Nc2cccc3ccc(-c4cccc(C(F)(F)F)c4)nc23)c1 [Compound 221]
27 | A (Fold activation >200%) | B (EC1.5 1-25 uM) | Cc1cccc(NC(=O)c2cccc3ccc(-c4cccnc4)nc23)n1 [Compound 249]
28 | A (Fold activation >200%) | A (EC1.5<1.0 uM) | Cn1ccc(NC(=O)c2cccc3ccc(-c4cccc(C(F)(F)F)c4)nc23)n1 [Compound 272]
29 |  | C (EC1.5>25 uM) | O=C(Nc1cccc2ccc(-c3cccc(N4CCCC4)c3)nc12)c1cscn1 [Compound 201]
30 |  | C (EC1.5>25 uM) | O=C(Nc1cccc2ccc(-c3cccc(C(F)(F)F)c3)nc12)c1csc(-c2ccccc2)n1 [Compound 206]
31 | A (Fold activation >200%) | A (EC1.5<1.0 uM) | O=C(Nc1ccc(CN2CCOCC2)nc1)c1cccc2ccc(-c3cccc(C(F)(F)F)c3)nc12 [Compound 291]
